# According to patent US20230158025A1 (UNIVERSITY OF UTAH RESEARCH FOUNDATION, priority 2020, published 2023):
# Like-named read-outs stand apart in the source and are kept apart here.
# Columns and labels:
# recombinant human GALK1 = recombinant human GALK1 (Homo sapiens, UniProt P51570); assay: hGALK1 biochemical activity assay (Kinase-Glo Plus, ATP depletion)
# Summary of the method: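 Turnover is measured as ATP depletion by Kinase-Glo Plus luminescence after a 1 h room-temperature reaction. Compounds span 11 concentrations, 57.4 μM–0.97 nM, in final 20 mM HEPES pH 8.0 with 5 mM MgCl2. The substrate solution held 35 μM ATP; the added solution held 5 nM human or mouse GALK1 and 100 μM galactose.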
# [1] = rat microsomal stability (RLM); settings: for half-life: rat, rat liver microsomes
# hGALK1m [2] = target: T1, hGALK1m (Homo sapiens, UniProt P51570, E253A/K252A); assay: in vitro hGALK1 activity assay of the structure-based optimisation (Example 12, Tables 17-20); format: biochemical; settings: for fold improvement of potency (IC50) versus parent compound: increase in potency relative to the unsubstituted parent
# T1 construct: made in house; host or cells: E. coli HMS174
# recombinant mouse GALK1 = recombinant mouse GALK1 (Mus musculus, UniProt Q9R0N0); assay: mGALK1 biochemical activity assay (Kinase-Glo Plus, ATP depletion)
# Summary of the method: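 Recombinant GALK1 (5 nM) with 100 μM galactose; GALK1 turnover read as ATP depletion by Kinase-Glo Plus luminescence. Reaction ran 1 h at room temperature before detection reagent was added.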
# [3] = tested on: skin fibroblasts derived from GALT-deficient patients; assay: Gal-1-p accumulation assay in patient fibroblasts; format: cell-based, human
# Description: Skin fibroblasts derived from GALT-deficient patients were maintained in galactose-free culture medium supplemented with 10% hexose-free fetal bovine serum (FBS). Before galactose challenge, inhibitors were added to the medium at designated concentrations and incubated at 37° C. for 4 hr. Then, galactose was added to reach 0.05% in the medium. After 4 hr of challenge, cells were collected and washed twice with PBS. Then, the cells were disrupted in 300 μL of ice-cold hypotonic buffer containing 25 mM Tris-HCl (pH 7.4), 25 mM NaCl, 0.5 mM EDTA, and protease inhibitor cocktail (Roche). The lysates were passed five times through a 30-gauge needle and centrifuged for 20 min at 16,000×g and 4° C. A small portion of supernatant was saved for protein concentration measurement. Gal-1-p level was measured using the alkaline phosphatase coupled method previously described. The gal-1-p concentration was normalized to protein concentration. The assay was analyzed using the paired t-test to determine the statistical difference between the compound treated cells and corresponding DMSO control. The two-sided p value less than 0.05 was considered statistically significant.
# For measurement of cellular Gal-1P reduction, compounds at different concentrations were added to cultured patient fibroblast at 80% confluency. After incubating the compounds for 16 hours, 10 mM galactose was added to the culture. After another 4-hours, cells were washed with cold PBS buffer 3× and harvested for gal-1P measurement, according to previously published method. Liu et al., Bioorg. Med. Chem. Lett. 25(3): 721-727 (2015).
# The in vitro hGALK1 activity assay was performed as previously described. Liu et al., Bioorg. Med. Chem. Lett. 25(3): 721-727 (2015). For the measurement of cellular Gal-1P reduction, compounds at different concentrations were added to cultured patient fibroblast at 80% confluency. After incubating the compounds for 16 hours, 10 mM galactose was added to the culture. […]
# [4] = aqueous kinetic solubility
# [5] = human liver microsome stability (HLM); format: in vitro ADME; settings: GALK lead profile
# [6] = mouse liver microsome stability (MLM); format: in vitro ADME; settings: GALK lead profile
# hGALK1m [7] = target: T1, hGALK1m; assay: surface plasma resonance (SPR) binding; settings: SPR at 4° C.
# Description: Further characterization of the two lead compounds thus far, Compound 1 and Compound 3, with surface plasma resonance (SPR), confirmed that these compounds bind to hGALK1m tightly. Their KDs were 23 nM and 12 nM respectively at 4° C. (FIGS. 4A and 3B). We attempted to co-crystalize these two compounds with hGALK1m, but only succeeded with Compound 1. […] Even with a fluorine substitution at C6 position, the benzoxazole ring of Compound 1 absolutely overlapped with that of Compound A (FIG. 4D). […] The decahydroquinazoline ring was opened in Compound 1, but the hydrogen bond between ketone group and Arg 105 remained intact, and Arg 105 moved closer to the ketone group in the crystal structure with Compound 1 (FIG. 4E). In addition, the amide's nitrogen atom formed a hydrogen bond with Tyr 109 (FIG. 4E), which could clarify why substituting the closed ring with opened amide structure improves the compound's activity. The isonicotinic acid moiety extended outside of the enzyme's active center and was solvent exposed (FIG. 4C).
# [8] = Tables 2-15, 35 μM ATP, 100 μM galactose, 1 h, bracketed figure after some values (e.g. −1.2) is undefined and not reported, read-out: hGALK IC50
# [9] = recombinant human GALK1, Kinase-Glo Plus ATP depletion, read-out: hGALK
# [10] = Tables 18-20 and text of Example 12
# [11] = recombinant mouse GALK1, Kinase-Glo Plus ATP depletion, read-out: mGALK
# [12] = PAMPA, ADME P: PAMPA permeability (class), Tables 17-19, class probably colour-coded, colour lost
# [13] = PAMPA, Perm. (1 × 10^−6 cm/sec)
# [14] = Tables 18-19, read-out: Max Response (%)
# [15] = Tables 2-15, 35 μM ATP, 100 μM galactose, 1 h, bracketed figure after some values is undefined and not reported, read-out: mGALK IC50
# [16] = Tables 18-19 and text of Example 12
# Chain of recombinant human GALK1 (P51570 whole entry): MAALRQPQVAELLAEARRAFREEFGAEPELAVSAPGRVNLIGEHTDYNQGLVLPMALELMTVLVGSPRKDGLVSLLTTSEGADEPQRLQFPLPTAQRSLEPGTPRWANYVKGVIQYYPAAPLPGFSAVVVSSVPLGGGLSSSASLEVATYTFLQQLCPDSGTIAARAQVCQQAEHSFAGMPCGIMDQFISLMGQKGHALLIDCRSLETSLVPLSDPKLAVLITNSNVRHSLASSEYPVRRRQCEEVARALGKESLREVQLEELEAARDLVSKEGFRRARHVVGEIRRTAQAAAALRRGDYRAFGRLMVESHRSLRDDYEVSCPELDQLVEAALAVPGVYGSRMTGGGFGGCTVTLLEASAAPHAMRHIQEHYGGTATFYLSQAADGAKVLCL
# T1 sequence (P51570 whole entry K252A/E253A): as the sequence (P51570 whole entry) above, with K252A, E253A counted along it
# Chain of recombinant mouse GALK1 (Q9R0N0 whole entry): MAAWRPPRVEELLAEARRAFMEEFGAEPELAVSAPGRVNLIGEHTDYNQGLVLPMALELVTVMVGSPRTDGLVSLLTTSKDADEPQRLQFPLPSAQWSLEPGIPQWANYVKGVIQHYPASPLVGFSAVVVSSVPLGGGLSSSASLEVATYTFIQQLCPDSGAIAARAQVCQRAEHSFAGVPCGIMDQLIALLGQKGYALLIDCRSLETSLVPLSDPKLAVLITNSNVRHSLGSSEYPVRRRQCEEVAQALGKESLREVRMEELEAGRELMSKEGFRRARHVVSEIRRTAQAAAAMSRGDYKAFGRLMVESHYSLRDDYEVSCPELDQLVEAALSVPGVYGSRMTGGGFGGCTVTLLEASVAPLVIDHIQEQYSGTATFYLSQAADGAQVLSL
IC50 (recombinant human GALK1; [8]),IC50 (recombinant human GALK1; [9]),IC50 (hGALK1m [2]; [10]),IC50 (recombinant mouse GALK1; [11]),Papp (PAMPA permeability; [12]),Papp (PAMPA permeability; [13]),Metab. Stabil. (m) ([1]; microsomal half-life),half-life [1],Emax (hGALK1m [2]; [14]),IC50 (recombinant mouse GALK1; [15]),Sol. [4],change of potency versus parent compound (in words) (hGALK1m [2]),Structure (SMILES),further results
50 nM,50 nM,14 nM,690 nM,,,,,,,,,"CC1=C(C(=O)NCc2cnn(C)c2)C(c2ccc(C)cc2Cl)N=C(Nc2nc3ccc(F)c(N)c3o2)N1 (centres unmarked) [Compound 126, 2-((7-amino-6-fluorobenzo[d]oxazol-2-yl)amino)-4-(2-chloro-4-methylphenyl)-6-methyl-N-((1-methyl-1H-pyrazol-4-yl)methyl)-1,4-dihydropyrimidine-5-carboxamide]","PAMPA (PAMPA permeability; GALK lead profile, two values given): 485 10^−6 cm/s; Perm. (1 × 10^−6 cm/sec) (PAMPA permeability; PAMPA): 459.1 1 × 10^−6 cm/sec; Papp (PAMPA permeability; PAMPA, GALK lead profile, two values given): 390 ×10⁻⁶ cm/s; RLM t ([1]; GALK lead profile): 16 min; Metab. Stabil. (m) ([1]; microsomal stability half-life): 17.1 m; effect on Gal-1P accumulation (FIG. 5A) ([3]; CG patient fibroblasts): inhibited Gal-1P accumulation; change of Gal-1P inhibition with concentration (FIG. 5B) ([3]; concentration increased from 0.5 μM to 1 μM): significantly greater inhibition of Gal-1P accumulation; change of Gal-1P inhibition with concentration (FIG. 5B) ([3]; concentration increased from 1 μM to 3 μM): did not increase significantly; Sol. ([4]; aqueous kinetic solubility): 1.27 µg/mL; HLM t [5]: 47 min; MLM t [6]: 13 min"
220 nM,220 nM,77 nM,3430 nM,< 10 ×10⁻⁶ cm/s,< 1 ×10⁻⁶ cm/s,>30 m,< 10 min,100%,3430 nM,>76 µg/mL,,"CC1=C(C(=O)Nc2cc(C(=O)O)ccn2)C(c2ccccc2Cl)N=C(Nc2nc3cccc(N)c3o2)N1 (racemic) [Compound 3, 2(2-((7-aminobenzo[d]oxazol-2-yl)amino)-4-(2-chlorophenyl)-6-methyl-1,4-dihydropyrimidine-5-carboxamido)isonicotinic acid]",fold improvement of potency (IC50) versus parent compound (hGALK1m [2]): 13 fold; Kd (hGALK1m [7]): 12 nM
,680 nM,260 nM,4320 nM,< 10 ×10⁻⁶ cm/s,< 1 ×10⁻⁶ cm/s,>30 m,< 10 min,100%,4320 nM,46.1 µg/mL,,"CC1=C(C(=O)Nc2cc(C(=O)O)ccn2)C(c2ccccc2Cl)N=C(Nc2nc3ccc(F)cc3o2)N1 (racemic) [Compound 1, 2-(4-(2-chlorophenyl)-2-((6-fluorobenzo[d]oxazol-2-yl)amino)-6-methyl-1,4-dihydropyrimidine-5-carboxamido)isonicotinic acid]",fold improvement of potency (IC50) versus parent compound (hGALK1m [2]): ~4 fold; Kd (hGALK1m [7]): 23 nM
1370 nM,,611 nM,3060 nM,< 10 ×10⁻⁶ cm/s,,>30 m,< 10 min,100%,3060 nM,<1 µg/mL,slightly improved the potency,"CC1=C(C(=O)Nc2cc(C(=O)O)ccn2)C(c2ccccc2Cl)N=C(Nc2nc3cc(C)ccc3o2)N1 (centres unmarked) [Compound 4, 2-(4-(2-chlorophenyl)-6-methyl-2-((5-methylbenzo[d]oxazol-2-yl)amino)-1,4-dihydropyrimidine-5-carboxamido)isonicotinic acid]",Perm. (1 × 10^−6 cm/sec) (PAMPA permeability): <1 1 × 10^−6 cm/sec
430 nM,430 nM,300 nM,3060 nM,< 10 ×10⁻⁶ cm/s,,>30 m,< 10 min,100%,3060 nM,8.3 µg/mL,little effect,"COc1ccc(C2N=C(Nc3nc4ccc(F)cc4o3)NC(C)=C2C(=O)Nc2cc(C(=O)O)ccn2)c(Cl)c1 (racemic) [Compound 46, 2-(4-(2-chloro-4-methoxyphenyl)-2-((6-fluorobenzo[d]oxazol-2-yl)amino)-6-methyl-1,4-dihydropyrimidine-5-carboxamido)isonicotinic acid]",
,1090 nM,345 nM,3850 nM,< 10 ×10⁻⁶ cm/s,,>30 m,< 10 min,85%,3850 nM,<1 µg/mL,little effect on the potency,"CC1=C(C(=O)Nc2cc(C(=O)O)ccn2)C(c2ccc(Cl)cc2Cl)N=C(Nc2nc3ccc(F)cc3o2)N1 (centres unmarked) [Compound 47, 2-(4-(2,4-dichlorophenyl)-2-((6-fluorobenzo[d]oxazol-2-yl)amino)-6-methyl-1,4-dihydropyrimidine-5-carboxamido)isonicotinic acid]",Perm. (1 × 10^−6 cm/sec) (PAMPA permeability): <1 1 × 10^−6 cm/sec
1090 nM,1090 nM,,7690 nM,< 10 ×10⁻⁶ cm/s,868 ×10⁻⁶ cm/s,,< 10 min,,7690 nM,,,"CC1=C(C(=O)NCc2cn(C)cn2)C(c2ccccc2Cl)N=C(Nc2nc3ccccc3o2)N1 (racemic) [Compound 233, 2-(benzo[d]oxazol-2-ylamino)-4-(2-chlorophenyl)-6-methyl-N-((1-methyl-1H-imidazol-4-yl)methyl)-1,4-dihydropyrimidine-5-carboxamide]","Metab. Stabil. (m) ([1]; microsomal stability half-life): 14.56 m; Emax (hGALK1m [2]; 1 h, Table 17, read-out: Efficacy): 90%; IC50 (hGALK1m [2]; [16]): 770 nM; Sol. ([4]; aqueous kinetic solubility): 26.6 µg/mL"
8630 nM,8630 nM,,21700 nM,< 10 ×10⁻⁶ cm/s,,>30 m,< 10 min,100%,21700 nM,55.5 µg/mL,compromised the potency,"CC1=C(C(=O)Nc2cc(C(=O)O)ccn2)C(c2cccc(Cl)c2Cl)N=C(Nc2nc3ccc(F)cc3o2)N1 (centres unmarked) [Compound 49, 2-(4-(2,3-dichlorophenyl)-2-((6-fluorobenzo[d]oxazol-2-yl)amino)-6-methyl-1,4-dihydropyrimidine-5-carboxamido)isonicotinic acid]",IC50 (hGALK1m [2]; [16]): 3600 nM
